Reference: US9834521B2, “Choline kinase inhibitors” (ARIAD Pharmaceuticals, Inc., priority 2013, dated 2017)
Like-named read-outs stand apart in the source and are kept apart here.

Key:
[1] = target: T1, ChoKα protein (Homo sapiens, UniProt P35790); assay: Binding affinity by surface plasmon resonance (SensiQ Pioneer, FastStep); details: SPR, 1:1 binding model, upper concentration 500 nM; read-out: Kd
T1 construct: made in house
Method: KD may be measured using surface plasmon resonance (BIAcore®) technology, see, e.g., Panayotou et al, Mol. Cell. […] ChoKα protein was immobilized by standard amine coupling methods on a COOH5 sensor chip installed in a SensiQ Pioneer system. Sensograms were measured using the FastStep™ screen method with an upper concentration of 500 nM. Kinetics and affinity were obtained from fits using a 1:1 binding model.

[2] = target: T2, truncated form of human Choline kinase α1 that includes residues 75-457 (Homo sapiens, UniProt P35790); assay: Kinase Assay, coupled (ATP regeneration) LDH/PK assay, NADH absorbance; format: biochemical; details: read-out: IC50
T2 construct: made in house
T2 sequence (P35790 75-457): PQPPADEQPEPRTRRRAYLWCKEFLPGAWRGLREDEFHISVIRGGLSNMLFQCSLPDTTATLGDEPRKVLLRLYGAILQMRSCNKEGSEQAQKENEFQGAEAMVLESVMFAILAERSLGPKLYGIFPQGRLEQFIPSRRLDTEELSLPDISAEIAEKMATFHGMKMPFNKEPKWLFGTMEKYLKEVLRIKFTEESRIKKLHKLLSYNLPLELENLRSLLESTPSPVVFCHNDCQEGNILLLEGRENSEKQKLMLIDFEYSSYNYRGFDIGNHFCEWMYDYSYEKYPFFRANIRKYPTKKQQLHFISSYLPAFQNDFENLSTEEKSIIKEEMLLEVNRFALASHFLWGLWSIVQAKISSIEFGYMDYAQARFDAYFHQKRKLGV
Method: Absorbance of NADH (340 nm) was measured over 30 min using a SpectraMax M5 (Molecular Devices). Initial reaction velocity (ΔA340/Δt) was calculated and plotted as a function of inhibitor concentration in a 2-fold dilution series. IC50 values were obtained by fitting the relative velocities to a dose-response model.

[3] = Examples not designated with an asterisk, footnote prints version 1 of the Kinase Assay
[4] = Examples designated with an asterisk (*): version 1 of the Kinase Assay, 200 nM enzyme

T1 sequence (P35790 75-457): as above

SMILES	Kd [1] [nM]	IC50 [2, 3] [nM]	IC50 [2, 4] [nM]
CN1CCCN(Cc2ccc(-c3ccc(CN4CCCC(O)C4)cc3)c(C#N)c2)CC1 (centres unmarked) [Example 1, 4′-((3-hydroxypiperidin-1-yl)methyl)-4-((4-methyl-1,4-diazepan-1-yl)methyl)-[1,1′-biphenyl]-2-carbonitrile]	< 100	< 100	
CN1CCCN(Cc2ccc(-c3ccc(CN4CCC(O)C4)cc3)c(C#N)c2)CC1 (centres unmarked) [Example 2, 4′-((3-hydroxypyrrolidin-1-yl)methyl)-4-((4-methyl-1,4-diazepan-1-yl)methyl)-[1,1′-biphenyl]-2-carbonitrile]	< 50	< 100	
CN1CCCN(Cc2ccc(-c3ccc(CN4CCC(CO)C4)cc3)c(C#N)c2)CC1 (centres unmarked) [Example 5, 4′-((3-(hydroxymethyl)pyrrolidin-1-yl)methyl)-4-((4-methyl-1,4-diazepan-1-yl)methyl)-[1,1′-biphenyl]-2-carbonitrile]	< 200	< 200	
CN1CCCN(Cc2ccc(-c3ccc(CN4CCN(CCO)CC4)cc3)c(C#N)c2)CC1 [Example 6, 4′-((4-(2-hydroxyethyl)piperazin-1-yl)methyl)-4-((4-methyl-1,4-diazepan-1-yl)methyl)-[1,1′-biphenyl]-2-carbonitrile]	< 100	< 200	
CN1CCCN(Cc2ccc(-c3ccc(CN4CCNC(=O)C4)cc3)c(C#N)c2)CC1 [Example 7, 4-((4-methyl-1,4-diazepan-1-yl)methyl)-4′-((3-oxopiperazin-1-yl)methyl)-[1,1′-biphenyl]-2-carbonitrile]	< 60000	< 200	
CN1CCCN(Cc2ccc(-c3ccc(CN(C)CCO)cc3)c(C#N)c2)CC1 [Example 8, 4′-(((2-hydroxyethyl)(methyl)amino)methyl)-4-((4-methyl-1,4-diazepan-1-yl)methyl)-[1,1′-biphenyl]-2-carbonitrile]	< 50	< 100	
CN1CCCN(Cc2ccc(-c3ccc(CN4CCOCC4)cc3)c(C#N)c2)CC1 [Example 9, 4-((4-methyl-1,4-diazepan-1-yl)methyl)-4′-(morpholinomethyl)-[1,1′-biphenyl]-2-carbonitrile]	< 100	< 200	
CN1CCCN(Cc2ccc(-c3ccc(CN4CCN(C)CC4)cc3)c(C#N)c2)CC1 [Example 11, 4-((4-methyl-1,4-diazepan-1-yl)methyl)-4′-((4-methylpiperazin-1-yl)methyl)-[1,1′-biphenyl]-2-carbonitrile]	< 200	< 200	
CCN(CC)C1CCN(Cc2ccc(-c3ccc(CN4CCCN(C)CC4)cc3C#N)cc2)CC1 [Example 15, 4′-((4-(diethylamino)piperidin-1-yl)methyl)-4-((4-methyl-1,4-diazepan-1-yl)methyl)-[1,1′-biphenyl]-2-carbonitrile]	< 50	< 100	
CN1CCCN(Cc2ccc(-c3ccc(CN)cc3)c(C#N)c2)CC1 [Example 16, 4′-(aminomethyl)-4-((4-methyl-1,4-diazepan-1-yl)methyl)-[1,1′-biphenyl]-2-carbonitrile]	< 200	< 200	
CN1CCCN(Cc2ccc(-c3ccc(C(=O)N4CCC(CO)C4)cc3)c(C#N)c2)CC1 (centres unmarked) [Example 22, 4′-(3-(hydroxymethyl)pyrrolidine-1-carbonyl)-4-((4-methyl-1,4-diazepan-1-yl)methyl)-[1,1′-biphenyl]-2-carbonitrile]	< 200	< 200	
CCN(CC)C(=O)c1ccc(-c2ccc(CN3CCCN(C)CC3)cc2C#N)cc1 [Example 27, 2′-cyano-N,N-diethyl-4′-((4-methyl-1,4-diazepan-1-yl)methyl)-[1,1′-biphenyl]-4-carboxamide]	< 200	< 200	
CNC(=O)c1ccc(-c2ccc(CN3CCCN(C)CC3)cc2C#N)cc1 [Example 29, 2′-cyano-N-methyl-4′-((4-methyl-1,4-diazepan-yl)methyl)-[1,1′-biphenyl]-4-carboxamide]	< 200	< 200	
CN(C)CCCNC(=O)c1ccc(-c2ccc(CN3CCCN(C)CC3)cc2C#N)cc1 [Example 30, 2′-cyano-N-(3-(dimethylamino)propyl)-4′-((4-methyl-1,4-diazepan-1-yl)methyl)-[1,1′-biphenyl]-4-carboxamide]	< 50	< 100	
CN1CCCN(Cc2ccc(-c3ccc(CNS(C)(=O)=O)cc3)c(C#N)c2)CC1 [Example 48, N-((2′-cyano-4′-((4-methyl-1,4-diazepan-1-yl)methyl)-[1,1′-biphenyl]-4-yl)methyl)methanesulfonamide]	< 50	< 100	
Cc1cc(CN2CCCN(C)CC2)ccc1-c1ccc(CO)cc1 [Example 51, (2′-methyl-4′-((4-methyl-1,4-diazepan-1-yl)methyl)-[1,1′-biphenyl]-4-yl)methanol]	< 60000	< 200	
CN1CCCN(Cc2ccc(-c3ccc(CN4CCCN(C)CC4)cc3[N+](=O)[O-])cc2)CC1 [Example 57, 4,4′-((2-nitro-[1,1′-biphenyl]-4,4′-diyl)bis(methylene))bis(1-methyl-1,4-diazepane)]	< 100	< 100	
CN1CCCN(Cc2ccc(-c3ccc(C(=O)N4CCCN(C)CC4)cc3C#N)c(C#N)c2)CC1 [Example 63, 4-((4-methyl-1,4-diazepan-1-yl)methyl)-4′-(4-methyl-1,4-diazepane-1-carbonyl)-[1,1′-biphenyl]-2,2′-dicarbonitrile]	< 200	< 200	
CN1CCCN(Cc2ccc(-c3ccc(C(=O)N4CCCN(C)CC4)cc3N)c(C#N)c2)CC1 [Example 64, 2′-amino-4-((4-methyl-1,4-diazepan-1-yl)methyl)-4′-(4-methyl-1,4-diazepane-1-carbonyl)-[1,1-biphenyl]-2-carbonitrile]	< 60000	< 200	
CN1CCCN(Cc2ccc(-c3ccc(C(=O)N4CCCN(C)CC4)cc3-c3ccc(O)cc3)c(C#N)c2)CC1 [Example 69, 4″-hydroxy-4-((4-methyl-1,4-diazepan-1-yl)methyl)-4′-(4-methyl-1,4-diazepane-1-carbonyl)-[1,1′:2′,1″-terphenyl]-2-carbonitrile]	< 50	< 100	

Second part, the compound after the results:

Kd [1] [nM]	IC50 [2, 3] [nM]	IC50 [2, 4] [nM]	SMILES
< 100	< 100		CN1CCCN(Cc2ccc(-c3ccc(C(=O)N4CCCN(C)CC4)cc3-c3cn[nH]c3)c(C#N)c2)CC1 [Example 71, 4-((4-methyl-1,4-diazepan-1-yl)methyl)-4′-(4-methyl-1,4-diazepane-1-carbonyl)-2′-(1H-pyrazol-4-yl)-[1,1′-biphenyl]-2-carbonitrile]
		< 50000	CN1CCCN(Cc2ccc(Cn3cncn3)cc2)CC1 [Example 143, 1-(4-((1H-1,2,4-triazol-1-yl)methyl)benzyl)-4-methyl-1,4-diazepane]
		< 50000	CN1CCCN(Cc2ccc(N3CCCC3=O)cc2)CC1 [Example 144, 1-(4-((4-methyl-1,4-diazepan-1-yl)methyl)phenyl)pyrrolidin-2-one]
		< 50000	CN1CCCN(Cc2ccc(N3CCS(=O)(=O)CC3)cc2)CC1 [Example 145, 4-(4-((4-methyl-1,4-diazepan-1-yl)methyl)phenyl)thiomorpholine 1,1-dioxide]
		< 50000	C=CCN1CCN(Cc2ccc(CN3CCCN(C)CC3)cc2)CC1 [Example 146, 1-(4-((4-allylpiperazin-1-yl)methyl)benzyl)-4-methyl-1,4-diazepane]
		< 50000	CN1CCCN(Cc2ccc(CN3CCN(CCO)CC3)cc2)CC1 [Example 147, 2-(4-(4-((4-methyl-1,4-diazepan-1-yl)methyl)benzyl)piperazin-1-yl)ethanol]
		< 50000	CN1CCC(N2CCN(Cc3ccc(CN4CCCN(C)CC4)cc3)CC2)CC1 [Example 149, 1-methyl-4-(4-((4-(1-methylpiperidin-4-yl)piperazin-1-yl)methyl)benzyl)-1,4-diazepane]
		< 50000	CN1CCCN(Cc2ccc(CN3CC[C@@H](O)C3)cc2)CC1 [Example 150, (R)-1-(4-((4-methyl-1,4-diazepan-1-yl)methyl)benzyl)pyrrolidin-3-ol]
		< 50000	COc1ccc(NCc2ccc(CN3CCCN(C)CC3)cc2)cc1 [Example 151, 4-methoxy-N-(4-((4-methyl-1,4-diazepan-1-yl)methyl)benzyl)aniline]
		< 50000	CN1CCCN(Cc2ccc(CCCCc3ccc(CN4CCCN(C)CC4)cc3)cc2)CC1 [Example 154, 1,4-bis(4-((4-methyl-1,4-diazepan-1-yl)methyl)phenyl)butane]
	< 500		CN1CCCN(Cc2ccc(-c3ccc(CN4CCCN(C)CC4)c(C#N)c3)cc2)CC1 [Example 155, 4,4′-bis((4-methyl-1,4-diazepan-1-yl)methyl)-[1,1′-biphenyl]-3-carbonitrile]
	< 2000		COC(=O)c1ccc(-c2ccc(CN3CCCN(C)CC3)cc2C#N)c(Br)c1 [Example 156, methyl 2-bromo-2′-cyano-4′-((4-methyl-1,4-diazepan-1-yl)methyl)-[1,1′-biphenyl]-4-carboxylate]
	< 50000		CN1CCCN(Cc2ccc(-c3ccc(C(=O)O)cc3Br)c(C#N)c2)CC1 [Example 157, 2-bromo-2′-cyano-4′-((4-methyl-1,4-diazepan-1-yl)methyl)-[1,1′-biphenyl]-4-carboxylic acid]
		< 50000	CN1CCCN(Cc2ccc(-c3ccc(C(=O)O)cc3)cc2)CC1 [Example 159, 4′-((4-methyl-1,4-diazepan-1-yl)methyl)-[1,1′-biphenyl]-4-carboxylic acid]
		< 50000	CN1CCCN(Cc2ccc(-c3ccc(CC(=O)O)cc3)cc2)CC1 [Example 160, 2-(4′-((4-methyl-1,4-diazepan-1-yl)methyl)-[1,1′-biphenyl]-4-yl)acetic acid]
